Assay results: patent publication US9023800B2, “Peptides for the treatment of oxidative stress related disorders” (Ramot at Tel-Aviv University Ltd., priority 2009, dated 2015)

Tests used:
[1] = test system: human neuroblastoma SH-SY5Y cells; assay: Serum deprivation in neuroblastoma cells; format: cell-based; conditions: during serum deprivation, vs saline (FIG. 4A)
Procedure: FIG. 4A is a bar graph illustrating that DJ-1-related peptides are protective against serum deprivation.
(§1) Human neuroblastoma SH-SY5Y cells are obtained from the American tissue Type Culture Collection (ATCC, Rockville, USA). Cells are grown under sterile conditions as monolayer in DMEM medium supplemented with 10% heat-inactivated fetal calf serum (FCS), gentamicin ([…]), and glutamine (5 mM) in a 5% CO2 humidified atmosphere at 37° C. The medium is routinely changed every 4 days, and cells are passaged every 8 days. All experiments are performed on cells which are near confluence.

[2] = test system: neuronally differentiated murine neural stem cells; assay: Oxidative insult (H2O2) in neuronally differentiated neural stem cells; format: cell-based; conditions: pretreated vs saline before exposure to hydrogen peroxide (FIG. 6)
Procedure: Neural progenitor/stem cells are isolated from murine cortex of postnatal c57/bl mice and cultured as neurospheres. Neural and astroglial differentiation are induced.
Susceptibility of differentiated and undifferentiated neural progenitor/stem cells to oxidative and toxic insults are determined with and without prior pretreatment with DJ-1 related peptides.
Susceptibility of differentiated and undifferentiated neural progenitor/stem cells to oxidative and toxic insults was determined with and without prior pretreatment with DJ-1 related peptides, as illustrated in FIG. 6.

[3] = test system: human neuroblastoma SH-SY5Y cells; assay: 6-hydroxydopamine toxicity in neuroblastoma cells; format: cell-based
Procedure: as §1, with “confluence. […]” for “confluence.”
(§2) Cells are seeded in 96-wells plates at the concentration of 5000 cells per well and allowed to attach over night. […] Alamar blue fluorescence is measured by FLUOstar spectrofluorometer at the excitation wavelength of 544 nm and the emission wavelength of 590 nm. […]
(§3) LDH released by damaged cells into the cell culture supernatant is determined using LDH cytotoxicity detection kit (Clontech laboratories, CA, USA), according to the manufacturer's instructions. […] The percentage of dead cells is calculated by the following formula of the absorbance values: (triplicate absorbance−low control)/(maximum absorption−low control)×100.
Hoechst 33342 enters cells with intact or damaged membranes and stains DNA in blue, thereby allowing evaluation of cell number in each well as well. […] Excitation is performed at 346 nm and emission wavelength is determined at 460 nm. […]

[4] = test system: HaCaT cells; assay: Protection against UV radiation in keratinocytes; format: cell-based, human; conditions: HaCaT pretreated vs saline before UV radiation (FIG. 14)
Procedure: The immortalized human HaCaT keratinocyte cells are used to test DJ-1 related peptides ability to protect against UV radiation induced injury. Cells are maintained in minimal essential medium containing 0.075 mM Ca^2+ (MEM-75) and 10% FCS in 5 cm Petri-dishes and subcultured every 3-4 days.
Cultured keratinocytes were used to examine the ability of DJ-1 related peptides to protect against the damaging effects of UV radiation.

[5] = test system: human neuroblastoma SH-SY5Y cells; assay: Hydrogen peroxide (H2O2) oxidative stress in neuroblastoma cells; format: cell-based
Procedure: as §1
(§4) Neuroblastoma cells are contacted with hydrogen peroxide (H2O2) (0-1 mM; Sigma, Chemicals Co., St. Louis, Mo., USA), 6-hydroxydopamine (0-100 μM; Sigma, Chemicals Co., St. Louis, Mo., USA), dopamine (0-500 μM; Sigma, Chemicals Co., St. Louis, Mo., USA) and 3-(4-morpholinyl)-sydnonimine (SIN-I) (0-5 mM; Sigma), (which is a peroxynitrite free radical donor), in order to produce ROS formation.
Several methods are used in order to determine the toxic effects of oxidative insults, neurotoxins and dopamine on cellular metabolic activity, mitochondrial activity and cell viability.
as §2, §3
Hoechst 33342 enters cells with intact or damaged membranes and stains DNA in blue, thereby allowing evaluation of cell number in each well as well. A FLUOstar spectrofluorometer microplate reader may be used in order to evaluate the cell number in each well following exposure to different doses of various toxins. Excitation is performed at 346 nm and emission wavelength is determined at 460 nm. […]

[6] = test system: human neuroblastoma SH-SY5Y cells; assay: Cell proliferation by [3H]thymidine incorporation; format: cell-based; conditions: exposure to the peptides (FIG. 1D)
Procedure: FIGS. 1A-F are bar graphs illustrating that DJ-1-related peptide TAT 2a (SEQ ID NO: 24) is protective in vitro against oxidative and toxic insults. […] Cell proliferation was measured by quantifying [^3H]thymidine incorporation. […] The presented experiments were done on human neuroblastoma SH-SY5Y cells, and repeated at least 3 times. *p<0.05, as compared to control cells treated with vehicle and exposed to the same toxic insult.
as §1

[7] = test system: human neuroblastoma SH-SY5Y cells; assay: Dopamine toxicity in neuroblastoma cells; format: cell-based; conditions: SH-SY5Y (FIG. 1F)
Procedure: as §1, §4
Cells are seeded in 96-wells plates at the concentration of 5000 cells per well and allowed to attach over night. On the following day, the cells are exposed to increasing doses of dopamine (0-500 uM) for 4 hours in serum free medium. Alamar blue is a non toxic reagent which incorporates a redox indicator that changes color in response to metabolic activity. […] Alamar blue fluorescence is measured by FLUOstar spectrofluorometer at the excitation wavelength of 544 nm and the emission wavelength of 590 nm. […]

[8] = test system: primary mixed neuronal and glial cultures obtained from cortex of postnatal wild type C57/bl mice; assay: Hydrogen peroxide toxicity in primary cultures; format: cell-based; conditions: increasing concentrations of hydrogen peroxide (FIGS. 5A-B)
Procedure: (§5) Murine neuronal and astrocytes primary cultures derived from cortical tissues of post natal c57/bl mice are prepared and used in order to examine protective potential of DJ-1 related peptides.
(§6) T protective effects of DJ-1 peptides on primary cultures, and on differentiated and undifferentiated neural stem cells obtained from C57/bl mice brains were evaluated. […] Specifically, FIGS. 5A-B illustrate protection of Tat 2A against oxidative and toxic injuries in primary mixed neuronal and astrocytes cultures from post natal mice brains. Neural progenitor/stem cells were isolated from murine cortex of postnatal c57/bl mice and cultured as neuro spheres. Neural and astroglial differentiation were induced.

[9] = test system: primary mixed neuronal and glial cultures obtained from cortex of postnatal wild type C57/bl mice; assay: 6-hydroxydopamine toxicity in primary cultures; format: cell-based; conditions: increasing concentrations of 6-hydroxydopamine (FIGS. 5A-B)
Procedure: as §5, §6

[10] = test system: neuroblastoma cells overexpressing A53T alpha-synuclein; assay: Hydrogen peroxide toxicity in cells overexpressing mutant alpha-synuclein; format: cell-based, human; conditions: A53T alpha-synuclein cells exposed to hydrogen peroxide (FIG. 10)
Procedure: The coding region of human wild-type or A53T mutant alpha-synuclein cDNA is subcloned into pcDNA3.1-plasmid (BD Biosciences, Clontech). In order to achieve overexpression of A53T mutant alpha-synuclein, SH-SY5Y neuroblastoma cells are stably transfected with the plasmid containing A53T mutant alpha-synuclein. Transfections are performed using the lipofectamine 2000 reagent (Invitrogen, Carlsbad, Calif.). Selection of transfected cells is performed by treating the cells with lethal doses of geniticin (G-418). Naive neuroblastoma cells as well as cells stably transfected with the empty vector are used as controls.
Stable transfections are verified by measuring alpha-synuclein mRNA and protein levels using real-time PCR and Western blotting.
A53T mutant alpha-synuclein is one of the causes for genetically inherited Parkinson's Disease. Neuroblastoma cells overexpressing mutated alpha-synuclein were used as a cellular platform for Parkinson's Disease. In order to achieve overexpression of A53T mutant alpha-synuclein, SH-SY5Y neuroblastoma cells were stably transfected with the plasmid containing A53T mutant alpha-synuclein.

[11] = test system: NSC-34 cells; assay: Hydrogen peroxide toxicity in cellular model of ALS; format: cell-based; conditions: NSC-34 pretreated vs saline before hydrogen peroxide (FIG. 12A)
Description: (§7) NSC-34 cells were used as a cellular model for ALS. Increasing doses of hydrogen peroxide and SIN-I, an NO donor, which are implicated in the pathogenesis of ALS were used.

[12] = test system: NSC-34 cells; assay: SIN-I toxicity in cellular model of ALS; format: cell-based; conditions: NSC-34 pretreated vs saline before SIN-I (FIG. 12B)
Procedure: as §4, §7

[13] = test system: 6-hydroxydopamine hemiparkinsonian mice model; assay: In vivo 6-hydroxydopamine induced hemiparkinsonian mice model
[14] = test system: MPTP Parkinson's model; assay: MPTP Parkinson's model in mice; format: in vivo; conditions: subcutaneous 0.4 mM; MPTP 20 mg/kg i.p. 5 consecutive days; 18 days later (FIG. 17)
Procedure: In order to generate an animal model for Parkinson's disease, mice were treated with 1-methyl-4-phenyl-1,2,3,6-tetrahydropyridine (MPTP). 5 mice (C57/bl) were injected for 5 consecutive days with 20 mg/kg MPTP (i.p.) in the presence and absence of the DJ-1 related peptide (0.4 mM subcutaneous; SEQ ID NO: 25). 18 days later, the mice were sacrificed and the dopamine level, in the two hemispheres was measured by HPLC.

For GAEEME (Artificial seqence) [peptide I], the viability [1] was “Increased viability” and the viability [2] was “Increased viability”.
In the case of “KGAEEMETVIPV (Artificial seqence) [short 2a]”, the viability [1] is reported as “Increased viability”.
For “VDVMRRAGI (Artificial seqence) [peptide II]”, the viability ([3]; SH-SY5Y pretreated vs saline before 6-hydroxydopamine (FIG. 3)) was “Increased viability”, the viability [1] was “Increased viability” and the viability [2] was “Increased viability”. The metabolic activities [4] was “Increased metabolic activities”.
“YGRKKRRKGAEEMETVIPVD (Artificial seqence) [TAT 2a]” was tested, and the cell viability ([5]; exposure to H2O2, vs saline alone (FIG. 1A)) was “Increased cell viability”, the mitochondrial damage ([5]; exposure to H2O2, vs saline alone (FIG. 1B)) was “decreased mitochondrial damage” and the metabolic activity ([5]; exposure to H2O2, vs saline alone (FIG. 1C)) was “increased metabolic activity”. The “cell proliferation ([3H]thymidine incorporation)” value [6] was “no increased cell proliferation”, the “protection against 6-hydroxydopamine toxicity” value ([3]; SH-SY5Y (FIG. 1E)) was “Protection” and the “protection against dopamine toxicity” value [7] was “Protection”. For the same substance, the “protection against H2O2 toxicity” value [8] was “protection”, the “protection against 6-hydroxydopamine toxicity” value [9] was “protection” and the viability [10] was “Significantly increased viability”. The viability [11] was “Increased viability”, the viability [12] was “Increased viability” and the metabolic activities [4] was “Increased metabolic activities”. The “fraction of the lesioned mice that rotated in response to amphetamine injection” value ([13]; 50 μg IV 4 hours before 6-hydroxydopamine lesioning (FIG. 16B)) was “smaller fraction”, the amphetamine-induced rotations ([13]; 50 μg IV 4 hours before 6-hydroxydopamine lesioning, vs saline (FIG. 16A)) was “Significantly reduced” and the “fraction of the lesioned mice that rotated in response to amphetamine injection” value ([13]; intrastriatal 2 μl of 100 μM one hour before lesioning (FIG. 15B)) was “smaller fraction”. The amphetamine-induced rotations ([13]; intrastriatal 2 μl of 100 μM one hour before lesioning, 2 and 4 weeks after lesioning, vs saline (FIG. 15A)) was “Significantly reduced”, the “accelerating Rotarod examination” value ([13]; intrastriatal peptide vs saline-treated controls, p=0.02) was “significant difference” and the “6-hydroxydopamine-induced loss of tyrosine hydroxylase (TH) staining in the lesioned striatum” value ([13]; intrastriatal peptide, immunohistochemical staining) was “reversed”.
“YGRKKRRTVIPVDVMRRAGI (Artificial seqence) [TAT 2b]” was tested, and the viability [11] was “Increased viability”, the viability [12] was “Increased viability” and the “protection against MPTP Parkinson's model (dopamine level by HPLC)” value [14] was “protects”.
